Measurements: patent US4927855A, “Levorotatory isomer of benzhydrylsulfinyl derivatives” (priority 1986, dated 1990)

Assays:
[1] = Activity and lethality of the metabolite CRL 40 467 in male mice; format: in vivo
[2] = Toxicity in male mice, intraperitoneal administration; format: in vivo
Description: (§1) The comparative tests which were undertaken with the levorotatory derivative according to the invention (Ex. 1; Code no.: CRL 40 982), the dextrorotatory derivative (CP1; Code no.: CRL 40 983) and the corresponding racemate (CP2; Code no.: CRL 40 476) have been summarized below. Unless indicated otherwise, the 3 products studied in these tests were administered intraperitoneally as a suspension in an aqueous solution of gum arabic, in a volume of 20 ml/kg to male mice and in a volume of 5 ml/kg to male rats.

[3] = Behavior in male mice (stimulant effects); format: in vivo; settings: intraperitoneal
Description: as §1

Behavior in rats = format: in vivo, male rats; settings: intraperitoneal; for mydriatic action in male rats: all the doses used; for behavior, reactivities and variations in the rectal temperature and pupil diameter: male rats, 64, 16, 4 and 1 mg/kg
Description: as §1
at a dose of 128 mg/kg, CRL 40 476 causes excitation with an increase in the fear ration for 2 h, exophthalmos for 1 h and mydriasis for 1 for 2 h;
at a dose of 32 mg/kg, CRL 40 476 causes excitation (transient, lasting 0.5 h) with an increase in the fear reaction for 1 h, exophthalmos for 0.5-1 h and mydriasis for 1-2 h;
at a dose of 8 mg/kg, CRL 40 476 causes exophthalmos for 0.5-1 h and mydriasis for 0.5 h;
at a dose of 2 mg/kg, CRL 40 476 induces transient mydriasis appearing 1 h after administration, whereas

[4] = Motor activity in mice (actimeter); format: in vivo, male mice; settings: for motor activity: 128 mg/kg and to a lesser extent 64 mg/kg, intraperitoneal four hours before 30 min recording; for intensity of stimulant effect / hyperactivity relative to the other products / level and statistical significance of hyperactivity relative to CRL 40 476: intraperitoneal four hours before the test; for level and statistical significance of hyperactivity relative to CRL 40 476: especially at 128 mg/kg
Description: as §1
The mice (6 per dose, 18 control animals) receive CRL 40 476, CRL 40 982 or CRL 40 983 four hours before being placed in an actimeter, where their motility is recorded for 30 minutes.

[5] = Pharmacokinetic study on dogs (plasma AUC, metabolism to CRL 40 467); format: in vivo; settings: for AUCo^+9h of CRL 40 476, comparison between products administered: dogs, oral, 30 mg/kg, plasma, 0-9 h, stereoisomers not distinguished; for conversion to inactive metabolite CRL 40 467: in the organism
From the text: to distinguish CRL 40 982 from the racemic and dextrorotatory compounds, a kinetic study of the metabolism was undertaken on dogs (group of four animals). In a randomized crossover procedure, each animal received the following at the rate of one oral administration per week: 2 administrations of CRL 40 476 (for assessment of the variations within individuals), 1 administration of CRL 40 982 and 1 administration of CRL 40 983. Following each of these administrations, the kinetics of the CRL 40 476 and CRL 40 467 present in the plasma were determined (without looking to see whether these two products were in the racemic, levorotatory and/or dextrorotatory form, because of the difficulties associated with determining the optical rotation of each of the optical isomers in a biological medium).
The dose administered for each of the test substances CRL 40 476, CRL 40 982 and CRL 40 983 was 30 mg/kg.
After administration of CRL 40 476, the said CRL 40 476 and its metabolite, CRL 40 467, are found in the plasma.
After the administration of CRL 40 982, the following are found in the plasma: the said CRL 40 982, which will be characterized and determined as being CRL 40 476 by way of convenience, in view of what has been said above, and a metabolite which will be characterized and determined as being CRL 40 467.
Likewise, after administration of CRL 40 983, the 2 corresponding products in the plasma will be characterized and determined as being CRL 40 476 and CRL 40 467.
The curves of the plasma concentrations of the said CRL 40 476 and CRL 40 467 as a function of time are plotted from time […] to time T=+9 h after administration of the CRL 40 476, CRL 40 982 and CRL 40 983. The areas under the curves (AUCo^+9h) are then calculated.

Human clinical trials = format: in vivo
Solubility of CRL 40 982 = settings: alcohols, acetone, water, ether
[6] = Immunostimulant effect in vitro
[7] = male mice, intraperitoneal, 1024, 512, 256, 128 and 64 mg/kg
[8] = human, once or twice a day, tablets or gelatin capsules of 50 to 100 mg

Row | Structure (SMILES) | LDO (maximum non-lethal dose) [2] | stimulant effects in male mice [3] | stimulant effects in male rats (Behavior in rats; male rats) | mydriatic action in male rats (Behavior in rats; male rats) | motor activity [4] | intensity of stimulant effect / hyperactivity relative to the other products [4] | AUCo^+9h of CRL 40 476, comparison between products administered [5] | conversion to inactive metabolite CRL 40 467 [5] | behavior, reactivities and variations in the rectal temperature and pupil diameter (Behavior in rats) | level and statistical significance of hyperactivity relative to CRL 40 476 [4] | also measured
1 | O=C(O)C[S+]([O-])C(c1ccccc1)c1ccccc1 (racemic) [CRL 40 467, (±)-benzhydrylsulfinylacetic acid] | – | – | – | – | – | – | – | – | – | – | activity of metabolite ([1]; male mice, intraperitoneal, 64-1024 mg/kg): inactive; death of animals treated [1, 7]: does not cause the death of any of the animals treated; duration of brief sedation [1, 7]: 50 to 60 min; psychotropic activity ([1]; neuropsychopharmacological study): did not reveal any psychotropic activity
2 | NC(=O)C[S+]([O-])C(c1ccccc1)c1ccccc1 (racemic) [CRL 40 476, (±)-benzhydrylsulfinylacetamide] | greater than or equal to 512 mg/kg | have stimulant effects | is a stimulant | has a mydriatic action at all the doses used | increase in the motor activity | less than that obtained with either CRL 40 982 or CRL 40 983 | not statistically different | partially converted to (±)-benzhydrylsulfinylacetic acid | – | – | transient mydriasis, time of appearance after administration (Behavior in rats; male rats, 2 mg/kg): 1 h; exophthalmos, duration (Behavior in rats; male rats, 8 mg/kg): 0.5 to 1 h; mydriasis, duration (Behavior in rats; male rats, 8 mg/kg): 0.5 h; excitation (transient), duration (Behavior in rats; male rats, 32 mg/kg): 0.5 h; exophthalmos, duration (Behavior in rats; male rats, 32 mg/kg): 0.5 to 1 h; increase in the fear reaction, duration (Behavior in rats; male rats, 32 mg/kg): 1 h; mydriasis, duration (Behavior in rats; male rats, 32 mg/kg): 1 to 2 h; excitation with increase in the fear reaction, duration (Behavior in rats; male rats, 128 mg/kg): 2 h; exophthalmos, duration (Behavior in rats; male rats, 128 mg/kg): 1 h
3 | NC(=O)C[S+]([O-])C(c1ccccc1)c1ccccc1 (single isomer, unassigned; (+)) [CRL 40 983, (+)-benzhydrylsulfinylacetamide] | greater than or equal to 512 mg/kg | have stimulant effects | do not have stimulant effects | devoid of this mydriatic action | increase in the motor activity | – | not statistically different | – | substantially comparable to those of the control group | greater than those due to CRL 40 476 | conversion to inactive metabolite CRL 40 467 ([5]; listed as dextrorotatory derivative): a very high proportion
4 | NC(=O)C[S+]([O-])C(c1ccccc1)c1ccccc1 (single isomer, unassigned; (-)) [CRL 40 982, (-)-benzhydrylsulfinylacetamide] | – | have stimulant effects | do not have stimulant effects | devoid of this mydriatic action | increase in the motor activity | stimulant effect equal in intensity to that observed with CRL 40 983 | approximately twice | only a small proportion of this product is converted to inactive CRL 40 467 | substantially comparable to those of the control group | greater than those due to CRL 40 476 | long-term clinical action (Human clinical trials; human, long term): arousing substance useful for hypersomnia; improvement in Alzheimer's disease (Human clinical trials; [8]): improvement of the symptoms of dementia, memory disorders, aphasia and ideomotor apraxia; stimulant neuropsychopharmacological profile (Human clinical trials; [8]): different stimulant neuropsychopharmacological profile from that of the amphetamines and tricyclic antidepressants; activity towards symptoms of dementia and loss of memory (Human clinical trials; human, short and long term, especially in the elderly): particularly active towards the symptoms of dementia and loss of memory; short-term clinical action (Human clinical trials; human, short term): purely hypnogenic, antiarousing substance; half-life (Human clinical trials; in vivo, human clinical trials, read-out: elimination half-life (converted)): ~10 h; solubility (Solubility of CRL 40 982): soluble in alcohols and acetone and insoluble in water and ether; immunostimulant effect [6]: immunostimulant effect was also observed; LD30 [2]: about 512 mg/kg; relative toxicity [2]: more toxic than CRL 40 983 (CP1) and CRL 40 476 (CP2); bioavailability ([5]; relative to racemic CRL 40 476 and dextrorotatory CRL 40 983): better bioavailability than the racemic compound CRL 40 476 and the dextrorotatory compound CRL 40 983
